Data as given in US12534514B2, “Biological and synthetic molecules inhibiting respiratory syncytial virus infection” (Fraunhofer-Gesellschaft zur Förderung der angewandten …, priority 2019, dated 2026).
Square brackets hold non-standard residues; d marks the D form. Tyr(3,5-I2) = N[C@@H](Cc1cc(I)c(O)c(I)c1)C(=O)O; Chg = N[C@H](C(=O)O)C1CCCCC1; Cpa = not defined here

Key:
active RSV = assay: ELISA binding of DNA-peptide construct to RSV; conditions: peptides coupled to DNA; FIG. 6B
Text: FIG. 6: Binding of novel DNA-Peptide construct to RSV. […] The single compounds are not in a representative scale. TMB=3,3′,5,5′-Tetramethylbenzidine, HRP=Horseradish peroxidase. […] “Only Anti-RSV antibody” and “Anti-RSV antibody+RSV” represent internal ELISA controls and lack components described in FIG. 6A. The other three samples have all components described in FIG. 6A. Each bar results from the mean values of triplicates±SD.
Binding of newly developed peptides 6 (Ac-[Chg][Cpa]VSTT[Tyr3,5-I2]LPHYFDN-NH2) and 12 (Ac-[Chg][Nle][Chg]STTYLPHYFDN-NH2) to active RSV was verified by enzyme-linked immunosorbent assay (FIG. 6).
FIG. 6A illustrates the scheme of the used ELISA. It has to be noted that the single compounds are not in a representative scale. […] Unspecific binding of RSV and/or RSV-antibody to neutravidin was excluded by using the two other controls.

[1] = system: RSV (ATCC VR-26—Long strain); assay: RSV plaque reduction assay on human epithelial cells (HEp-2); assay type: cell-based
Method: FIG. 1: Scheme of the used inhibition experiments. RSV-plaque reduction assay on human epithelial cells (HEp-2). HEp-2 cells were seeded in 96-well plate 24 h prior to infection (left). Next day, cells were infected with RSV (middle, white arrow). Simultaneously, peptides at concentrations of 20 μM were added to the cells (middle, black arrow). The inhibitory activity was determined 48 post infection by counting viral plaques after immunocytochemical staining using RSV-specific monoclonal antibody (right, black-checked arrow).
The designed peptides were synthesized and screened for their inhibitory activity against RSV in a cell culture-based plaque reduction assay as illustrated in FIG. 1. In detail, Anti-RSV activity was assessed in plaque reduction assay as follows: HEp-2 cells were seeded in a 96-well plate 24 h prior to infection. […] The inhibitory activity was determined 48 h post infection by counting viral plaques after immunocytochemical staining using RSV-specific monoclonal antibody.
Anti-RSV activity was assessed in plaque reduction assay. […] The inhibitory activity was determined 48 h post infection by counting viral plaques after immunocytochemical staining using RSV-specific antibody.
In detail, anti-RSV activity was assessed in plaque reduction assay. […] Viral plaques were counted after immunocytochemical staining using RSV-specific antibody at 48 h after infection. […]

Substance: Ac-[Chg][Cpa]VSTT[Tyr3,5-I2]LPHYFDN-NH2 (Ac-[Chg][Cpa]VSTT[Tyr(3,5-I2)]LPHYFDN-NH2; reading uncertain; also: printed as Ac-[Chg][Cpa]VSTT[Tyr3,5-I2]LPHYFDN-NH2) [peptide 6]
- binding to active RSV (ELISA) (active RSV): verified

Substance: Ac-[Chg][Nle][Chg]STTYLPHYFDN-NH2 (XXXSTTYLPHYFDN; HELM PEPTIDE1{[ac].[O=C([C@@H](N[*:1])C1CCCCC1)[*:2]].[Nle].[O=C([C@@H](N[*:1])C1CCCCC1)[*:2]].S.T.T.Y.L.P.H.Y.F.D.N.[am]}$$$$V2.0; SMILES CCCC[C@H](NC(=O)[C@@H](NC(C)=O)C1CCCCC1)C(=O)N[C@H](C(=O)N[C@@H](CO)C(=O)N[C@H](C(=O)N[C@H](C(=O)N[C@@H](Cc1ccc(O)cc1)C(=O)N[C@@H](CC(C)C)C(=O)N1CCC[C@H]1C(=O)N[C@@H](Cc1c[nH]cn1)C(=O)N[C@@H](Cc1ccc(O)cc1)C(=O)N[C@@H](Cc1ccccc1)C(=O)N[C@@H](CC(=O)O)C(=O)N[C@@H](CC(N)=O)C(N)=O)[C@@H](C)O)[C@@H](C)O)C1CCCCC1) [peptide 12]
- binding to active RSV (ELISA) (active RSV): verified

Substance: LVVSTTYLPHYFDN (Ac-LVVSTTYLPHYFDN-NH2)
- inhibition of infection with RSV on human epithelial cells ([1]; concentration of 20 μM, RSV Long, 48 h post infection, FIG. 3B): > 50%
- inhibition of infection with RSV on human epithelial cells (screen of truncated peptides, FIG. 2) ([1]; peptides at 20 μM added simultaneously with RSV, plaques counted 48 h post infection): able to inhibit infection with RSV
